Laboratory results reported in ChEMBL document CHEMBL5727966, “Compositions and methods for treating disorders of circadian and diurnal rhythms using prokineticin 2 agonists and antagonists” (2020).

Assay: Aequorin-Based Luminescent Assay : An aequorin-based luminescent assay for calcium mobilization was used to measure mobilization of intracellular Ca2+ (Bullock et al., Mol Pharmacol 65, 582-588, 2004). Chinese hamster ovary (CHO) cells stably expressing photoprotein aequorin and recombinant PKR1 or PKR2 were tested by this method. Briefly, the cells were charged in Opti-MEM™ (Invitrogen) containing 8 μM of coelenterazine cp at 37° C. for 2 hours. Cells were detached by brief trypsinization and maintained in Hank's Balanced Salt Solution (HBSS) plus 10 mM HEPES (pH7.5) and 0.1% BSA at about 5×10^5 cells/ml. Luminescence measurements were made using a Berthold luminometer.All compounds were diluted in HBSS plus 10 mM HEPES (pH7.5) and 0.1% BSA. To test the agonist activity, 100 μl of cells were injected into the tubes with 20 μl of compounds. For antagonist assays, 80 μl cells were incubated in the tubes with 20 μl different concentrations of antagonists at room temperature for 20 minutes, and then 100 μl of recombinant PK2 were injected. The IC50 obtained from the assays were then converted to Ki values using the formula: IC50/(1+[PK2]/EC50PK2).
Format: cell-based

## CC(C)CN(Cc1cc(Cl)c2c(c1)OCCCO2)C(=O)C1CN(Cc2cccc3nc[nH]c23)CCO1 (stereo unspecified)
  Ki: 8.4 nM
